Laboratory results reported in PubChem BioAssay AID1996.
Values after ≈ are worked out from the molar mass of the structure shown.

conditions: buffer; pH 7.4; 200.0 µM

Structure (SMILES)	solubility kinetic
COCCCNC(=O)/C(C#N)=C/c1cc(C)[nH]c1C	> 39.2 µg/mL
O=C(Nc1ccc(Cl)cc1)c1ccc(Br)cc1F	< 0.7 µg/mL
Cl.O=C(NC1CCN(Cc2ccccc2)CC1)c1cccc(S(=O)(=O)Nc2ccc(SC(F)F)cc2)c1	31.7 µg/mL
O=C(Nc1ccccc1Cl)C1C(c2ccccc2)C1(Cl)Cl (stereo unspecified)	< 0.7 µg/mL
O=C(CCCCCl)Nc1c2c(nc3ccccc13)CCC2	31.6 µg/mL (≈ 104 µM)
CC1CN(C(=O)COC(=O)c2ccc(C#N)cc2)CC(C)O1 (stereo unspecified)	> 45.3 µg/mL
COc1ccccc1Nc1nc(N)nc(CN2CCCCC2)n1	> 47.2 µg/mL
COc1ccccc1-c1nc(C#N)c(N2CC(C)CC(C)C2)o1 (stereo unspecified)	1.5 µg/mL (≈ 4.82 µM)
Cc1ccc(C(=O)N[C@H](C(=O)Nc2ccc(F)cc2)C(C)C)cc1	3 µg/mL (≈ 9.14 µM)
CCc1noc(C)c1C(=O)Nc1ccc(F)c(F)c1F	> 42.6 µg/mL
CC(C)CC(=O)N1CCN(Cc2ccc(Cl)cc2)CC1	28.4 µg/mL (≈ 96.3 µM)
Cc1cc(NC(=O)C2=C(O)c3ccccc3S(=O)(=O)N2C)no1	33.9 µg/mL (≈ 101 µM)
c1ccc2c(CN3CCOCC3)c[nH]c2c1	> 32.4 µg/mL
Nc1nc(SCC(=O)Nc2cccnc2Cl)n[nH]1	> 42.7 µg/mL
O=C(CCSCc1ccccc1F)NCc1ccc(F)cc1	32.8 µg/mL (≈ 102 µM)
O=C1c2ccsc2SCCN1Cc1ccc(F)cc1	40.5 µg/mL (≈ 138 µM)
Cc1ccc(OCC(=O)NCCCNC(=O)c2ccc(C)nc2)cc1	> 51.2 µg/mL
CCC(C)(C)NC(=O)C1CCCN1C(=O)NC1CCCCC1 (stereo unspecified)	> 46.4 µg/mL
O=C(Nc1nc2ccsc2c(=O)s1)c1ccc(Cl)cc1	< 0.3 µg/mL
Cc1cc2cc(CNC(=S)NCc3ccccc3)ccc2n1C	1.8 µg/mL (≈ 5.56 µM)
Cc1cc(CNC(=O)Cc2ccc(F)cc2)c2ccccc2n1	> 46.3 µg/mL

Structure (SMILES)	solubility kinetic
Cc1c(-c2ccc(Br)cc2)[n+](=O)c2c(n1[O-])CCCCC2	> 52.4 µg/mL
O=C(Nc1nccs1)c1cccnc1Cl	> 36 µg/mL
CCOc1ccccc1NC(=O)c1cccc(N2C(=O)CCC2=O)c1	> 50.8 µg/mL
CC(=O)Nc1nc2ccccc2n1Cc1ccccc1Cl	5.2 µg/mL (≈ 17.3 µM)
COc1cccc(OCC(=O)NC2CCS(=O)(=O)C2)c1 (stereo unspecified)	> 44.9 µg/mL
O=C(COc1ccccc1[N+](=O)[O-])Nc1ccc2oc(=O)ccc2c1	0.5 µg/mL (≈ 1.47 µM)
O=C(c1ccco1)N1CCN(c2ccc([N+](=O)[O-])cn2)CC1	18.3 µg/mL (≈ 60.5 µM)
Cc1ccc(NC(=O)CCC(=O)c2ccc(Cl)s2)nc1	7.5 µg/mL (≈ 24.3 µM)
CN(CCC#N)C(=O)c1cc2c(Cl)nc3ccccc3c2s1	1.1 µg/mL (≈ 3.34 µM)
CC(C)c1ccc(NC(=S)Nc2cccc3ccccc23)cc1	1.8 µg/mL (≈ 5.62 µM)
CCCCc1c(C)nc2c(OC)cccc2c1SCC(=O)O	> 47.9 µg/mL
O=C(NC(=S)Nc1cccnc1Cl)c1ccco1	32.2 µg/mL (≈ 114 µM)
Cc1nc(/C(N)=N/OC(=O)c2c(-c3ccccc3Cl)noc2C)cs1	48.2 µg/mL (≈ 128 µM)
COc1ccc(Cl)cc1NC(=O)CN(C)Cc1cccs1	3 µg/mL (≈ 9.24 µM)
Nc1nc2c(Cl)cc(Cl)cc2s1	7.4 µg/mL (≈ 33.8 µM)
COc1ccc(S(=O)(=O)N(CCC#N)Cc2ccco2)cc1OC	28.2 µg/mL (≈ 80.5 µM)
CCC(C)NC(=O)c1cc(-c2ccc3c(c2)OCO3)on1 (stereo unspecified)	3 µg/mL (≈ 10.4 µM)
CC(=O)N(CCc1cccc(C)c1)Cc1cc2cc(C)ccc2[nH]c1=O	1.1 µg/mL (≈ 3.16 µM)
CC(C)(C)C(=O)N/C(N)=N/c1nc2ccccc2o1	8.1 µg/mL (≈ 31.1 µM)
COc1ccc(O)c(C2=Nc3ccccc3N=C(c3ccccc3)C2)c1	< 0.4 µg/mL
Cc1ccc(C(=O)NCC(=O)N2CCCCCCC2)cc1C	> 45.4 µg/mL

Structure (SMILES)	solubility kinetic
Cc1ccc(CNC(=O)CCCc2ccccc2)cc1	9.2 µg/mL (≈ 34.4 µM)
CCS(=O)(=O)c1ccc(O)c(NC(=O)/C=C/c2ccc(Cl)cc2)c1	3.9 µg/mL (≈ 10.7 µM)
O=C(Nc1nccs1)c1ccc2ccccc2n1	5.6 µg/mL (≈ 21.9 µM)
CC1CN(Cc2ccccc2)c2nc3c(c(=O)[nH]c(=O)n3C)n2C1 (stereo unspecified)	> 48.8 µg/mL
CCOc1ccc(CNC(c2ccccc2)c2ccccc2)cc1.Cl	< 0.8 µg/mL
CCc1ccc(CNC(=O)C(=O)NCC2CCCO2)cc1 (stereo unspecified)	17.6 µg/mL (≈ 60.6 µM)
Cc1cccc(OCC(=O)NCC(c2ccco2)N2CCCC2)c1 (stereo unspecified)	> 49.3 µg/mL
CN(CC1COc2ccccc2O1)C(=O)CSc1ncccn1 (stereo unspecified)	> 49.7 µg/mL
COc1ccc(NC2(C#N)CCCCC2)cc1	12.4 µg/mL (≈ 53.8 µM)
COc1ccc(/C=C/C(=O)c2c(C)cc(C)[nH]c2=O)c2ccccc12	15.7 µg/mL (≈ 47.1 µM)
Cc1ccc(Nc2ncnc(-n3cccc3)n2)cc1Cl	< 0.1 µg/mL
COCc1cc(C)nc(OC)c1C(N)=O	23.9 µg/mL (≈ 114 µM)
Cc1cccc(C(=O)O/N=C/c2ccc(Br)cc2)c1	< 0.7 µg/mL
O=S(=O)(NCc1nc(-c2ccccc2)no1)c1ccc(F)cc1	6.4 µg/mL (≈ 19.2 µM)
COc1ccc(NC(=S)NC(C)c2ccncc2)cc1OC (stereo unspecified)	46.7 µg/mL (≈ 147 µM)
CCc1ccc(N2C(=O)CC(=O)NC2=O)cc1	> 34.8 µg/mL
CCOc1ccc(NC(=O)CCc2ccc(C)o2)cc1	10.5 µg/mL (≈ 38.4 µM)
O=S(=O)(c1cccs1)N1CCC2(CC1)OCCO2	> 43.4 µg/mL
COC(=O)c1sccc1NC(=O)Nc1cc(C)ccc1OC	11.1 µg/mL (≈ 34.6 µM)
Cc1cc(OCC(=O)N(C)C2CCCCC2)cc(C)c1Cl	15.4 µg/mL (≈ 49.7 µM)
COC(=O)c1ccc(Nc2nc(-c3ccncc3)nc3ccccc23)cc1	1.1 µg/mL (≈ 3.09 µM)

Structure (SMILES)	solubility kinetic
O=S(=O)(Nc1ccon1)c1ccc(F)c(F)c1	25.9 µg/mL (≈ 99.5 µM)
CC(C)c1ccc(S(=O)(=O)Nc2ccc3c(c2)OCO3)cc1	26.4 µg/mL (≈ 82.7 µM)
O=C(COC(=O)COc1ccccc1[N+](=O)[O-])Nc1ccc2c(c1)OCO2	51.5 µg/mL (≈ 138 µM)
CCOC(=O)CNC(=O)N1c2ccccc2Sc2ccccc21	> 49.3 µg/mL
CCN(C(=O)COC(=O)c1ccc(SC)cc1OC)C1CCS(=O)(=O)C1 (stereo unspecified)	> 60.2 µg/mL
CN=c1sc(C(=O)Nc2ccccc2)c(C)n1C	35.3 µg/mL (≈ 135 µM)
CC(C)c1nc2ccccc2n1CC(O)COC1CCCCC1 (stereo unspecified)	> 47.5 µg/mL
Nc1nc(Nc2ccc(Cl)cc2)c(NC=O)c(=O)[nH]1	> 42 µg/mL
COC(=O)CCC(=O)NC(=S)Nc1ccccc1F	36.8 µg/mL (≈ 129 µM)
Cc1ccc(C(=O)CCC(=O)NC2CCCC(C)C2C)cc1 (stereo unspecified)	17.4 µg/mL (≈ 57.7 µM)
COc1cc(/C=C(\C#N)C(=O)Nc2ccccn2)ccc1O	5.9 µg/mL (≈ 20 µM)
COc1ccccc1OCC#CCn1ccnc1.O=C(O)C(=O)O	> 49.8 µg/mL
CCC(=O)N/C(N)=N/c1nc(C)c2cc(C)c(C)cc2n1	11.6 µg/mL (≈ 40.7 µM)
O=S(=O)(c1ccccc1)N(Cc1cccc(F)c1)c1ccccc1	< 0.7 µg/mL
O=C(Nc1ccc(CN2CCOCC2)cc1)c1ccc(Br)cc1	0.6 µg/mL (≈ 1.6 µM)
Nc1cc(=O)[nH]c(SCC(=O)Nc2cccc(S(=O)(=O)N3CCCCCC3)c2)n1	11.7 µg/mL (≈ 26.7 µM)
Cc1cc(=O)[nH]c(Nc2cccc(Cl)c2C)n1	> 37.5 µg/mL
COc1ccc(N2CC(C(=O)Nc3cccnc3)CC2=O)cc1 (stereo unspecified)	> 46.7 µg/mL
Cc1ccc(NS(=O)(=O)c2ccc(C(=O)NCCN3CCOCC3)cc2)cc1.Cl	> 66 µg/mL
COc1ccccc1Nc1ncccc1[N+](=O)[O-]	1.2 µg/mL (≈ 4.89 µM)

Further lines, results first:

solubility kinetic	Structure (SMILES)
14.9 µg/mL (≈ 45.7 µM)	COc1ccc(N2C(=O)CC(c3ccc([N+](=O)[O-])cc3)C2=O)cc1 (stereo unspecified)
> 43.6 µg/mL	Cc1cc(C)c(S(=O)(=O)NCc2ccccn2)cc1C
> 31.1 µg/mL	N#C/C(=C\c1ccccn1)c1ccccn1
30.4 µg/mL (≈ 112 µM)	COc1ccc(-c2cc(C(=O)N3CCCC3)no2)cc1
8.4 µg/mL (≈ 24.6 µM)	COc1ccc(C(=O)Nc2ccc3c(c2)n(C)c(=O)n3C)cc1OC
4.2 µg/mL (≈ 12.4 µM)	Cc1ccccc1OCCC(=O)Nc1ccc2c(C)cc(=O)oc2c1
> 48.4 µg/mL	CC1CCN(C(=O)c2ccc(NC(=O)c3ccccc3)cc2)CC1
41 µg/mL (≈ 150 µM)	O=C(O)COc1ccc(/C=N/O)cc1Br
27.9 µg/mL (≈ 117 µM)	COCc1[nH]c(=S)c(C#N)cc1C(=O)OC
35.6 µg/mL (≈ 110 µM)	Cc1nc2cc(NS(=O)(=O)c3ccccc3F)ccc2s1
> 41 µg/mL	Cc1ccc2c(CN3CCOCC3)cc(=O)oc2c1C
49.4 µg/mL (≈ 143 µM)	CCN(CC)CCCNC(=O)c1cc(-c2ccc3c(c2)OCO3)on1
24.7 µg/mL (≈ 114 µM)	Cc1ccc(C)c(OCCn2ccnc2)c1
35.5 µg/mL (≈ 110 µM)	Cc1nc2ccccc2c2oc(C(=O)N3CC(C)CC(C)C3)cc12 (stereo unspecified)
9 µg/mL (≈ 92.7 µM)	O=C1C=CC(=O)N1
> 39.4 µg/mL	CC1CCCCN1C(=S)NC(=O)c1ccccc1 (stereo unspecified)
34.1 µg/mL (≈ 94.2 µM)	COC(=O)C1CSC(c2ccc(Cl)cc2)N1C(=O)c1ccccc1 (stereo unspecified)
1.7 µg/mL (≈ 5.13 µM)	CCCCOC(=O)C1=C(C)NC(=O)NC1c1ccc(N(C)C)cc1 (stereo unspecified)
0.9 µg/mL (≈ 2.69 µM)	CC(=O)C(C(C)=O)C(c1ccccc1)c1nc2ccccc2[nH]c1=O (stereo unspecified)

solubility kinetic	Structure (SMILES)
1 µg/mL (≈ 2.74 µM)	Cc1ccc(C(=O)Nc2ccc3c(c2)C(=O)N(CC2CCCO2)C3=O)cc1 (stereo unspecified)
6.9 µg/mL (≈ 19.8 µM)	O=C(COC(=O)c1ccc2c(c1)OCCO2)Nc1ccc(F)cc1F
> 38.7 µg/mL	COc1ccc(NC(=O)c2ccc(C)cc2)c[n+]1[O-]
34.1 µg/mL (≈ 125 µM)	OCC1(Cc2ccccc2)CCCN(C2CCCC2)C1 (stereo unspecified)
41.1 µg/mL (≈ 133 µM)	CC(C)C[C@H](NC(=O)Nc1ccc2c(c1)OCCO2)C(=O)O
8.3 µg/mL (≈ 28.6 µM)	CCOc1ccc(NC(=S)Nc2ccc(F)cc2)cc1
2.2 µg/mL (≈ 6.52 µM)	COc1cc(SC)ccc1C(=O)OCC(=O)NC1CCCCC1
> 40.5 µg/mL	O=C(C(=O)N1CCCCCC1)c1c[nH]c2ccccc12
19.4 µg/mL (≈ 56.3 µM)	Cc1cccc(C)c1OCc1cc(C(=O)NC2CCC(O)CC2)no1 (stereo unspecified)
> 36 µg/mL	CCC(C(=O)Nc1ccccn1)c1ccccc1 (stereo unspecified)
> 50 µg/mL	NC(=O)c1nn(CC(=O)Nc2ccc3c(c2)OCO3)cc1[N+](=O)[O-]
6.5 µg/mL (≈ 15 µM)	Cc1ccc(CNC(=O)COC(=O)c2ccc(S(=O)(=O)N3CCOCC3)cc2)cc1
> 47.5 µg/mL	Cc1ccc2c(C)c(C(=O)NCCN3CCOC3=O)oc2c1C
21.5 µg/mL (≈ 89.8 µM)	OCCN1c2ccccc2CCc2ccccc21
> 45.2 µg/mL	O=C1NC(N2CCOCC2)=N/C1=C/c1ccc2c(c1)OCO2
> 46.6 µg/mL	CN(C)C(CNC(=O)c1c(F)cccc1Cl)c1ccco1 (stereo unspecified)
3.4 µg/mL (≈ 12.1 µM)	O=C(Nc1cccc(Cl)c1)Nc1c[nH]c(=O)[nH]c1=O
< 0.6 µg/mL	COc1ccc(CC(C)Nc2ccccc2F)cc1 (stereo unspecified)
> 52.3 µg/mL	Cc1cccc(Nc2ccncc2S(=O)(=O)NC(=O)NC(C)C)c1
